Test system: CD86 expression on macrophages
Test: Flow cytometry of CD86 protein on macrophages
Assay type: cell-based, human
Settings: 48 h incubation
Description: The effect of the above-listed compounds on the expression of the TLR4 receptor and the CD86 protein was studied by flow cytometry after 48 h incubation with macrophages. The interaction of bacterial endotoxins with the TLR4 receptor is known to activate the expression of several pro-inflammatory cytokine genes, while the co-stimulatory molecule CD86 plays an important role in […] inflammatory responses. A decrease in the expression of the TLR4 receptor was observed under the action of all tested compounds (Figure 4c,e), the rank order of these TLR4-suppressing effects was as follows: hypaphorine (14%) < PNU 282,987 (21%) < 6ID (31%).
Peripheral blood mononuclear cells (PBMCs) were separated by Ficoll-Paque PLUS density gradient centrifugation. PBMCs were placed in a sterile Petri dish and incubated at 37 °C for 2 h. Unattached cells were then removed by washing with PBS and substituted with fresh complete RPMI 1640 medium. To generate monocyte-derived macrophages (MDMs), 50 ng/mL GM-CSF was added to the isolated monocytes and cultured for 6 days to differentiate them into non-polarized MDMs.
Figure 4 The effects of PNU 282987, hypaphorine, and D-6-iodohypaphorine methyl ester (6ID) on macrophage membrane proteins expression. Cells were treated with these compounds for 48 h and then analyzed by flow cytometry. PNU 282,987 led to an increase in the (a) CD11b and (b) CD11c expression. (c): All tested compounds led to a decrease in TLR4 expression. (d): Macrophages stimulation with hypaphorine and 6ID promoted an increase in CD86 expression. Results obtained in three independent experiments on macrophages from different donors and presented as mean ± SD. One-way ANOVA tests with Tukey post hoc test: * p ˂0.05, ** p ˂ 0.01, **** p < 0.0001 in comparison with untreated cells.

For `COC(=O)[C@@H](Cc1c[nH]c2cc(I)ccc12)[N+](C)(C)C` [Compound 1, (D)-6-iodohypaphorine methyl ester], which “increase in the expression of CD86” value is on record?
The value was 21%.

Reference: PMC10305119, “Analogs of 6-Bromohypaphorine with Increased Agonist Potency for α7 Nicotinic Receptor as Anti-Inflammatory Analgesic Agents” (Marine Drugs, 2023)
